Experimental data taken from patent publication US8097650B2, “Method of treating a condition associated with phosphorylation of TASK-1” (The Trustees of Columbia University In The City of New York, priority 2005, dated 2012).

What was measured:
[1] = tested on: murine ventricular myocytes; assay: Arrhythmias induced by PKCε activator peptide in murine ventricular myocytes, rescue by TREK-1 activators; type: cell-based, mouse; details: AA 100 nM or tyrphostin 47 50 μM from 1 min after rupture
Experimental: FIGS. 23A-23D. Activation of TREK-1 can overcome arrhythmias induced by inhibition of TASK-1. Isolated murine ventricular myocytes were studied in current clamp mode and paced at 1 Hz. The cells were studied in regular Tyrode's, pH 7.4. Recordings were begun immediately after rupture and continued for 12-15 min, with the 5.5 min time point illustrated. A PKCε-specific activator peptide (100 nM) was included in the patch pipette, which lead to inhibition of TASK-1 current and repolarization abnormalities (23A and 23B).
FIG. 25. Activation of TREK-1 can overcome arrhythmias induced by inhibition of TASK-1. Isolated murine ventricular myocytes were studied in current clamp mode and paced at 1 Hz. The cells were studied in regular Tyrode's, pH 7.4. Recordings were begun immediately after rupture and continued for 12-15 min. A PKCε-specific activator peptide (100 nM) […] or a scrambled control peptide (100 nM) (25A) was included in the patch pipette. After the activator peptide had induced repolarization abnormalities (25B left panel), a TREK-1 activator, ONO-RS-082 (100 nM) was added to the superfusion.
Isolated murine ventricular myocytes were studied in current clamp mode and paced at 1 Hz. The cells were studied in regular Tyrode's, pH 7.4, and recordings were begun immediately after rupture and continued for 12-15 min, with the 5.5 min timepoint illustrated. As shown in FIGS. 23A and 23B, a PKCε-specific activator peptide (100 nM) was included in the patch pipette which lead to inhibition of TASK-1 current and repolarization abnormalities.

TREK-1 [2] = target: T1, TREK-1 (Homo sapiens, UniProt O95069); assay: Human TREK-1 current in CHO cells (ramp clamp); type: cell-based; parameters: expressed in transfected cells; host or cells: CHO cells; details: +50 mV; riluzole 100 nM, anisomycin 3.7 μM, CDC 10 μM, tyrphostins 10 μM
T1 sequence (O95069 1-426): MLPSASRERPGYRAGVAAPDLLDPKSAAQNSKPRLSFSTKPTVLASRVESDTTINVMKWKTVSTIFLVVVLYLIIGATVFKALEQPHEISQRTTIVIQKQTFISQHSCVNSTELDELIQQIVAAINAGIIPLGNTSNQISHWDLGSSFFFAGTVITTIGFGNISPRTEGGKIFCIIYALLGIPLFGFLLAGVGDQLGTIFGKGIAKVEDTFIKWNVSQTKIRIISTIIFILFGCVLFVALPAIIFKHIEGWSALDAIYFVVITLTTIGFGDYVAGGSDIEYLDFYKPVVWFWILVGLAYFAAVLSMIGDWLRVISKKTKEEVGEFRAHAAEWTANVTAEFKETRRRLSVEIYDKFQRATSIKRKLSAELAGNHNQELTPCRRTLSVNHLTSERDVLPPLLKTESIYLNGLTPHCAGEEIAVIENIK
Experimental: FIG. 18. Structure-activity analysis of activators of human TREK-1 channel. Human TREK-1 was expressed in CHO cells and current was measured during a ramp protocol (−120 to +50 mV in 6 s). The activation of the current at +50 mV in the presence of various putative TREK-1 activators was measured and summarized in the bar graph as % activation over basal. Various endogenous lipids, most related to lipoxygenase metabolites of either arachidonic acid or linoleic acid, were tested (all at 100 nM).
FIG. 21. CHO cells (hTREK-1, hTASK-1) or HEK cells (mTRAAK) were co-transfected with plasmids encoding one of the two pore domain channels and GFP using the GeneJammer reagent. After 48-60 h, the expressed current was measured using a ramp protocol while the cells were perfused with regular Tyrode's solution containing varying concentrations of ONO-RS-082 (range of concentration from 10 nM to 500 μM as noted in FIG. 21) until a steady state was reached. Each cell was exposed to only one concentration of drug. Panel A: TREK-1 current was determined using a ramp clamp, and the percent increase induced by ONO-RS-082 was measured at the most positive imposed voltage (n≧5). The EC50 for activation was around 3 μM and the basal and ONO-activated current densities are noted. Panel B: TASK-1 current was determined using a ramp clamp in Tyrode's solution at pH=8 and the percent increase induced by ONO-RS-082 was measured at the most positive imposed voltage (n≧4). The EC50 was around 8 μM and the basal and ONO-activated current densities are noted. Panel C: TRAAK current was determined using a ramp clamp, and the percent increase induced by ONO-RS-082 was measured at the most positive imposed voltage (n≧4). The EC50 was around 0.9 μM and the basal and ONO-activated current densities are noted.
Subsequently, the structure-activity analysis of activators of human TREK-1 channel was determined. […] The activation of the current at +50 mV in the presence of various putative TREK-1 activators was measured and summarized in the bar graph as % activation over basal.
CHO cells were transfected with a plasmid encoding human TREK-1 and the current was studied by patch clamp. The current-voltage relation was determined using a ramp protocol that went from −130 mV to +40 mV in 6 s (after correction for the junction potential). […] This is typical of 7 cells.

TREK-1 [3] = target: T1, TREK-1; assay: Heterologous expression of TREK-1, lipoxygenase products; type: cell-based; parameters: expressed in transfected cells
Description: In heterologous expression studies of one 2PK, TREK-1, it has been observed that a divergence in the sensitivity of the channel to various lipoxygenase products exists. […] Altered channel function may underlie some of the aberrant regulation of cell proliferation characteristic of the carcinoma cells. In addition, it has been observed that Northern analysis of normal prostate tissue show expression of TASK-1, TASK-3 and TREK-1 in prostate (Duprat F et al., […] EMBO J. 16:5464-71; Mu D et al., (2003) Cancer Cell, 3:297-302; Medhurst A D et al., (2001) Brain Res, 86:101-14).

[4] = tested on: mouse ventricular myocytes; assay: Repolarization abnormalities in mouse ventricular myocytes paced at 1 Hz with PKCε peptides; type: cell-based
Experimental: (§1) Mouse ventricular myocytes were isolated using a retrograde coronary perfusion method previously published (Kuznetsov V et al. (1995) Circ Res 76: 40-52). All the experiments were carried out according to the guidelines issued by the IACUC of Columbia University. Adult mice 2 or 3 months old, were anaesthetized with a xylazine and ketamine mix and heparinized, the heart was quickly removed and the ascending aorta was connected to the outlet of a Langendorff column and perfused with 20-25 ml of a buffer solution (37° C.) containing (mM):NaCl, 112; KCl, 5.4; NaHCO3, 4.2; MgCl2, 1.6; HEPES, 20; glucose, 5.4; NaH2PO4, 1.7; taurine, 10; L-glutamine, 4.1; MEM amino acids solution, 2%; MEM vitamin solution, 1%; adjusted to pH 7.4, and equilibrated with 100% O2. Next, the heart was perfused with an enzyme solution containing collagenase (0.2 mg/ml; Worthington Type II) and trypsin (0.04 mg/ml) at 35° C. for 10-12 min. After this perfusion, the atria were removed and the ventricles minced and transferred to a 50 ml flask with an enzyme solution containing collagenase (0.45 mg/ml), trypsin (0.08 mg/ml), Ca^2+ (0.75 mM) and bovine serum albumin (BSA; 4.8 mg/ml). The flask was shaken vigorously for 5-10 min at 32° C. before the supernatant was removed and the cells were collected by centrifugation, this operation was repeated two or three times and additional disaggregated cells were collected. After centrifugation, the myocytes were resuspended in the buffer solution containing Ca^2+ (0.75 mM) and BSA and stored at room temperature until use. Rod-shaped, Ca^2+-tolerant myocytes, obtained with this procedure, were used within 6 h of dissociation. Measurements were performed only on quiescent myocytes with clear striations
(§2) The myocyte suspension or the coverslip with CHO cells was placed into a perfusion chamber, mounted on the stage of an inverted microscope. Unless otherwise indicated, CHO cells were superfused at room temperature with standard external Tyrode's buffer, containing (mM): NaCl, 140; KCl, 5.4; CaCl2, 1; MgCl2, 1; HEPES, 5; glucose, 10; adjusted to pH 7.4. Recordings were begun after the current reached a stable baseline (usually 3 to 4 min after initial cell rupture). In myocytes, TASK-1 current is small and exists in the presence of numerous larger K^+ currents. In order to increase the inward component of TASK-1 current and to block other potassium currents in myocytes, a modified high K^+ external solution (modified Tyrode's) was used to reduce outward rectification of TASK-1 current. The composition of this solution-was (in mM): NaCl, 100; KCl, 50; CaCl2, 1; MgCl2, 1; HEPES, 5; glucose, 10; tetraethylammonium (TEA), 1; CsCl, 5; adjusted to pH 7.4. Membrane potential and current were measured in the whole cell configuration using borosilicate glass pipettes with a tip resistance between […] and filled with a pipette solution containing (mM): aspartic acid, 130; KOH, 146; NaCl, 10; CaCl2, 2; EGTA, 5; HEPES, 10; MGATP, 2; pH 7.2. The stock solutions of C-PAF and of the PKC inhibitor, bisindolylmaleimide (BIM-I; Calbiochem), were prepared in water and diluted to the final concentrations in Tyrode's or modified Tyrode's, as appropriate. The PKC activator, PMA, was prepared in DMSO and then diluted in Tyrode's. […] Myocytes treated with the peptides were monitored continuously beginning immediately after rupture to detect the occurrence of any arrhythmias during dialysis of the peptide. Application of C-PAF to cells treated with the inhibitor peptide was started after the peptide had been permitted to dialyse into the cell (8-10 min after rupture for CHO or 10-12 min after rupture for myocytes).
The current and the voltage protocols were generated using Clampex 8.0 software applied by means of an Axopatch 200-B and a Digidata 1200 interface (Axon Instruments). In current clamp mode, for recording action potentials, the signals were filtered at 1 KHz (low pass Bessel filter) and acquired at a sampling rate of 5 KHz. […]

murine TASK-1 = assay: TASK-1 current expressed in CHO cells (whole-cell ramp clamp); type: cell-based, mouse; details: peptide 100 nM in pipette, PMA 100 nM; for effect of peptide on C-PAF and PMA inhibition of TASK-1 current: C-PAF 185 nM
Experimental: The TASK-1 clone (provided by Professor Y. Kurachi, Osaka University) was co-transfected in CHO cells with CD8 plasmid using Lipofectamine Plus (Invitrogen) according to the manufacturer's instructions. 48 h later cells were transferred to the electrophysiology chamber and anti-CD8 coated beads (Dynal Biotech) were added to identify CD8 expressing cells. Expressing cells were voltage clamped using a ramp clamp (see below). CHO cells were used in these experiments, in part, because they express endogenous PAFR.
Chinese hamster ovary cells (CHO) were grown in F-12 medium supplemented with 10% fetal bovine serum. Twenty-four hours prior to transfection, cells were seeded into 6 well plates at 80-90% of confluence. Transfections were carried out with the GeneJammer transfection reagent (Stratagene) according to the manufacturer's instructions. Briefly, cells were washed with PBS and their medium replaced with supplemented F-12 medium (900 μl/well). For each well, GeneJammer (6 μl) was incubated with Opti-MEM (90 μl) followed by the addition of DNA (1 μg). This mixture was then added to the wells and 3 h later an additional 2 ml of supplemented F-12 medium was added. After incubating overnight, the cells were washed and their medium replaced.
Cells were either co-transfected with pCMV-TASK1 together with pEGFP-C1 (1 μg total, 3:1) or transfected with […] or T381A-pTIE (1 μg). 48 h after the transfection the cells were checked under the microscope for green fluorescence. Approximately 20% of the cells were positive for EGFP and these were then used for patch-clamp experiments. Due to the culture-to-culture variability in the expression of TASK-1 current, most comparisons were made on matched controls from the same transfection. Summary results were then obtained by pooling data from several different culture preparations.
as §2
The current and the voltage protocols were generated using Clampex 8.0 software applied by means of an Axopatch 200-B and a Digidata 1200 interface (Axon Instruments). […]

TASK-1 = assay: C-PAF-sensitive TASK-1 current in mouse ventricular myocytes dialyzed with PKCε peptides; type: cell-based; details: for effect of peptide on ability of C-PAF to reduce TASK-1 current: held at −10 mV, peptide 100 nM in pipette, C-PAF 185 nM
Experimental: as §1
The myocyte suspension or the coverslip with CHO cells was placed into a perfusion chamber, mounted on the stage of an inverted microscope. Unless otherwise indicated, CHO cells were superfused at room temperature with standard external Tyrode's buffer, containing (mM): NaCl, 140; KCl, 5.4; CaCl2, 1; MgCl2, 1; HEPES, 5; glucose, 10; adjusted to pH 7.4. Recordings were begun after the current reached a stable baseline (usually 3 to 4 min after initial cell rupture). In myocytes, TASK-1 current is small and exists in the presence of numerous larger K^+ currents. […] Membrane potential and current were measured in the whole cell configuration using borosilicate glass pipettes with a tip resistance between […] and filled with a pipette solution containing (mM): aspartic acid, 130; KOH, 146; NaCl, 10; CaCl2, 2; EGTA, 5; HEPES, 10; MGATP, 2; pH 7.2. […] Myocytes treated with the peptides were monitored continuously beginning immediately after rupture to detect the occurrence of any arrhythmias during dialysis of the peptide. […]

CCCCC/C=C\C/C=C\C/C=C\C/C=C\CCCC(=O)O [arachidonic acid]
arrhythmias induced by PKCε activator peptide during drug superfusion [1]: fewer arrhythmias

Nc1nc2ccc(OC(F)(F)F)cc2s1 [riluzole]
type of activation of human TREK-1 current (TREK-1 [2]): slow-onset activators

CCCCCC(/C=C/C=C\C/C=C\C/C=C\CCCC(=O)O)OO (stereo not shown) [15-HPETE]
effect on TREK-1 current (TREK-1 [3]): increases TREK-1 current

CCCCC[C@H](O)/C=C/C=C\CCCCCCCC(=O)O [13-HODE, 13(S)-hydroxyoctadecadienoic acid]
effect on TREK-1 current (TREK-1 [3]): reduces current

LSETKPAV [scrambled peptide]
cells with repolarization abnormalities / abnormal automaticity ([4]; peptide in pipette, no added C-PAF): 2 of 10
effect of peptide on C-PAF and PMA inhibition of TASK-1 current (murine TASK-1): no effect
effect of peptide on ability of C-PAF to reduce TASK-1 current (TASK-1): had no effect

EAVSLKPT [PKCε-inhibitor peptide]
repolarization abnormalities ([4]; C-PAF, PKCε-specific inhibitor peptide 100 nM in pipette): completely absent
effect of peptide on PMA-sensitive current (murine TASK-1): completely blocked
effect of peptide on C-PAF and PMA inhibition of TASK-1 current (murine TASK-1): blocked the effect
effect of peptide on ability of C-PAF to reduce TASK-1 current (TASK-1): significantly inhibited
C-PAF-sensitive current in the presence of peptide (TASK-1; ramp −50 to +30 mV, modified Tyrode's, inhibitor peptide 100 nM): abolished

N#C/C(=C\c1ccc(O)c(O)c1)C(N)=S [tyrphostin 47]
arrhythmias induced by PKCε activator peptide during drug superfusion [1]: fewer arrhythmias
